Reference: patent US20230398130A1, “METHODS AND COMPOSITIONS FOR DIFFERENTIATING STEM CELLS” (Massachusetts Institute of Technology, priority 2020, published 2023)

Tests used:
ISC-enriched organoids [1] = assay: Primary screen, 384-well 2.5-D organoid differentiation (ENR+CD, 6 days): basal lysozyme secretion (LYZ.NS); type: cell-based, murine; conditions: for Dose.FC.LYZ.NS: FC vs plate median; for SSMD.LYZ.NS: strictly standardized mean difference; for Dose.FC.LYZ.NS (log 2 fold change, basal lysozyme secretion): vs plate median
From the text: (§1) High-throughput screening.

ISC-enriched organoids [2] = assay: Primary screen, 384-well 2.5-D organoid differentiation (ENR+CD, 6 days, Target Selective Inhibitor Library, vs whole-plate median): ATP (CellTiter-Glo 3D, CTG); conditions: for Dose.FC.CTG: FC vs plate median; for SSMD.CTG: strictly standardized mean difference; for Dose.FC.CTG (log 2 fold change, ATP): vs plate median
ISC-enriched organoids [3] = assay: Primary screen, 384-well 2.5-D organoid differentiation (ENR+CD, 6 days): carbachol-induced lysozyme secretion (LYZ.S); type: cell-based, murine; conditions: for Dose.FC.LYZ.S / Z.LYZ.S / SSMD.LYZ.S: primary screen; for Dose.FC.LYZ.S: FC vs plate median; for Z.LYZ.S: standard z score; for SSMD.LYZ.S: strictly standardized mean difference; for Dose.FC.LYZ.S (log 2 fold change, carbachol-induced lysozyme secretion): vs plate median
From the text: as §1

[4] = Dose 0.08 uM, standard z score of FC
[5] = Dose 0.40 uM, standard z score of FC
[6] = Dose 2.00 uM, standard z score of FC
[7] = Dose 10.00 uM, standard z score of FC
[8] = Dose 0.08 uM, primary screen, standard z score
[9] = Dose 0.40 uM, primary screen, standard z score
[10] = Dose 2.00 uM, primary screen, standard z score
[11] = Dose 10.00 uM, primary screen, standard z score
[12] = primary screen, 1st of the 4 dose lines of the treatment (dose not given)
[13] = primary screen, 2nd of the 4 dose lines of the treatment (dose not given)
[14] = primary screen, 3rd of the 4 dose lines of the treatment (dose not given)
[15] = primary screen, 4th of the 4 dose lines of the treatment (dose not given)
[16] = 1st of the 4 dose lines of the treatment (dose not given)
[17] = 2nd of the 4 dose lines of the treatment (dose not given)
[18] = 3rd of the 4 dose lines of the treatment (dose not given)
[19] = 4th of the 4 dose lines of the treatment (dose not given)

Which results are given for `CN1C(=O)C(Cc2c[nH]c3ccccc23)NC1=S` (stereo not shown) [Necrostatin-1]?
Dose.FC.LYZ.NS (ISC-enriched organoids [1]; Dose 0.08 uM, primary screen): 0.060 log 2 fold change; Z.LYZ.NS (ISC-enriched organoids [1]; [4]): 0.524; Dose.FC.LYZ.NS (ISC-enriched organoids [1]; Dose 0.40 uM, primary screen): 0.020 log 2 fold change; Z.LYZ.NS (ISC-enriched organoids [1]; [5]): 0.174; Dose.FC.LYZ.NS (ISC-enriched organoids [1]; Dose 2.00 uM, primary screen): 0.154 log 2 fold change; Z.LYZ.NS (ISC-enriched organoids [1]; [6]): 1.338; Dose.FC.LYZ.NS (ISC-enriched organoids [1]; Dose 10.00 uM, primary screen): 0.057 log 2 fold change; Z.LYZ.NS (ISC-enriched organoids [1]; [7]): 0.496; Dose.FC.CTG (ISC-enriched organoids [2]; Dose 0.08 uM, primary screen): 0.102 log 2 fold change; Z.CTG (ISC-enriched organoids [2]; [4]): 0.244; Dose.FC.CTG (ISC-enriched organoids [2]; Dose 0.40 uM, primary screen): 0.168 log 2 fold change; Z.CTG (ISC-enriched organoids [2]; [5]): 0.401; Dose.FC.CTG (ISC-enriched organoids [2]; Dose 2.00 uM, primary screen): 0.011 log 2 fold change; Z.CTG (ISC-enriched organoids [2]; [6]): 0.027; Dose.FC.CTG (ISC-enriched organoids [2]; Dose 10.00 uM, primary screen): 0.137 log 2 fold change; Z.CTG (ISC-enriched organoids [2]; [7]): 0.328; Dose.FC.LYZ.S (ISC-enriched organoids [3]; Dose 0.08 uM): 0.077 log 2 fold change; Dose.FC.LYZ.S (ISC-enriched organoids [3]; Dose 0.40 uM): 0.038 log 2 fold change; Dose.FC.LYZ.S (ISC-enriched organoids [3]; Dose 2.00 uM): 0.092 log 2 fold change; Dose.FC.LYZ.S (ISC-enriched organoids [3]; Dose 10.00 uM): 0.229 log 2 fold change

What does the source list for `O=C(c1ccc(Nc2nccc(-c3cc4ccccc4s3)n2)cc1)N1CCC(N2CCCC2)CC1` [IKK-16 (IKK Inhibitor VII)]?
Dose.FC.LYZ.NS (ISC-enriched organoids [1]; Dose 0.08 uM, primary screen): 0.104 log 2 fold change; Z.LYZ.NS (ISC-enriched organoids [1]; [8]): 0.903; Dose.FC.LYZ.NS (ISC-enriched organoids [1]; Dose 0.40 uM, primary screen): 0.020 log 2 fold change; Z.LYZ.NS (ISC-enriched organoids [1]; [9]): 0.176; Dose.FC.LYZ.NS (ISC-enriched organoids [1]; Dose 2.00 uM, primary screen): −0.081 log 2 fold change; Z.LYZ.NS (ISC-enriched organoids [1]; [10]): −0.708; Dose.FC.LYZ.NS (ISC-enriched organoids [1]; Dose 10.00 uM, primary screen): −0.291 log 2 fold change; Z.LYZ.NS (ISC-enriched organoids [1]; [11]): −2.531; SSMD.LYZ.NS (ISC-enriched organoids [1]; [12]): 0.817; SSMD.LYZ.NS (ISC-enriched organoids [1]; [13]): 0.207; SSMD.LYZ.NS (ISC-enriched organoids [1]; [14]): −0.481; SSMD.LYZ.NS (ISC-enriched organoids [1]; [15]): −2.119; Dose.FC.CTG (ISC-enriched organoids [2]; Dose 0.08 uM, primary screen): 0.058 log 2 fold change; Z.CTG (ISC-enriched organoids [2]; [8]): 0.139; Dose.FC.CTG (ISC-enriched organoids [2]; Dose 0.40 uM, primary screen): −0.051 log 2 fold change; Z.CTG (ISC-enriched organoids [2]; [9]): −0.122; Dose.FC.CTG (ISC-enriched organoids [2]; Dose 2.00 uM, primary screen): −0.431 log 2 fold change; Z.CTG (ISC-enriched organoids [2]; [10]): −1.029; Dose.FC.CTG (ISC-enriched organoids [2]; Dose 10.00 uM, primary screen): −0.950 log 2 fold change; Z.CTG (ISC-enriched organoids [2]; [11]): −2.268; SSMD.CTG (ISC-enriched organoids [2]; [12]): 0.131; SSMD.CTG (ISC-enriched organoids [2]; [13]): −0.190; SSMD.CTG (ISC-enriched organoids [2]; [14]): −0.877; SSMD.CTG (ISC-enriched organoids [2]; [15]): −1.581; Dose.FC.LYZ.S (ISC-enriched organoids [3]; Dose 0.08 uM): 0.092 log 2 fold change; Dose.FC.LYZ.S (ISC-enriched organoids [3]; Dose 0.40 uM): 0.028 log 2 fold change; Dose.FC.LYZ.S (ISC-enriched organoids [3]; Dose 2.00 uM): −0.142 log 2 fold change; Dose.FC.LYZ.S (ISC-enriched organoids [3]; Dose 10.00 uM): −0.383 log 2 fold change; Z.LYZ.S (ISC-enriched organoids [3]; [16]): 0.593; Z.LYZ.S (ISC-enriched organoids [3]; [17]): 0.179; Z.LYZ.S (ISC-enriched organoids [3]; [18]): −0.918; Z.LYZ.S (ISC-enriched organoids [3]; [19]): −2.475; SSMD.LYZ.S (ISC-enriched organoids [3]; [16]): 0.496; SSMD.LYZ.S (ISC-enriched organoids [3]; [17]): 0.203; SSMD.LYZ.S (ISC-enriched organoids [3]; [18]): −0.698; SSMD.LYZ.S (ISC-enriched organoids [3]; [19]): −1.351

With `COc1ccc2cc(-c3nc(-c4ccc([S+](C)[O-])cc4)[nH]c3-c3ccncc3)ccc2c1` (stereo not shown) [Tie2 kinase inhibitor] as the molecule, how does the “Z.LYZ.NS (standard z score)” value (ISC-enriched organoids [1]; dose 0.08 uM) read?
The value was 0.080.

What about the “Dose.FC.LYZ.NS (log 2 fold change, basal lysozyme secretion)” value (ISC-enriched organoids [1]; dose 0.08 uM) of the same molecule?
The value was 0.009.

And the “Z.LYZ.NS (standard z score)” value (ISC-enriched organoids [1]; dose 0.40 uM)?
Its value is 0.019.

And the “Dose.FC.LYZ.NS (log 2 fold change, basal lysozyme secretion)” value (ISC-enriched organoids [1]; dose 0.40 uM)?
Its value is 0.002.

What about the “Z.LYZ.NS (standard z score)” value (ISC-enriched organoids [1]; dose 2.00 uM) of the same molecule?
Its value is 1.577.

And the “Dose.FC.LYZ.NS (log 2 fold change, basal lysozyme secretion)” value (ISC-enriched organoids [1]; dose 2.00 uM)?
Its value is 0.181.

And the “Z.LYZ.NS (standard z score)” value (ISC-enriched organoids [1]; dose 10.00 uM)?
The value was −0.274.

And the “Dose.FC.LYZ.NS (log 2 fold change, basal lysozyme secretion)” value (ISC-enriched organoids [1]; dose 10.00 uM)?
The value was −0.031.

And the “Z.CTG (standard z score)” value (ISC-enriched organoids [2]; dose 0.08 uM)?
Its value is 0.012.

What about the “Dose.FC.CTG (log 2 fold change, ATP)” value (ISC-enriched organoids [2]; dose 0.08 uM) of the same molecule?
Its value is 0.005.

What about the “Z.CTG (standard z score)” value (ISC-enriched organoids [2]; dose 0.40 uM) of the same molecule?
The value was 0.177.

What about the “Dose.FC.CTG (log 2 fold change, ATP)” value (ISC-enriched organoids [2]; dose 0.40 uM) of the same molecule?
Its value is 0.074.

And the “Z.CTG (standard z score)” value (ISC-enriched organoids [2]; dose 2.00 uM)?
The value was −0.750.

And the “Dose.FC.CTG (log 2 fold change, ATP)” value (ISC-enriched organoids [2]; dose 2.00 uM)?
The value was −0.314.

What about the “Z.CTG (standard z score)” value (ISC-enriched organoids [2]; dose 10.00 uM) of the same molecule?
The value was −1.311.

And the “Dose.FC.CTG (log 2 fold change, ATP)” value (ISC-enriched organoids [2]; dose 10.00 uM)?
The value was −0.549.

And the “Dose.FC.LYZ.S (log 2 fold change, carbachol-induced lysozyme secretion)” value (ISC-enriched organoids [3]; dose 0.08 uM)?
Its value is 0.018.

What about the “Dose.FC.LYZ.S (log 2 fold change, carbachol-induced lysozyme secretion)” value (ISC-enriched organoids [3]; dose 0.40 uM) of the same molecule?
The value was −0.021.

And the “Dose.FC.LYZ.S (log 2 fold change, carbachol-induced lysozyme secretion)” value (ISC-enriched organoids [3]; dose 2.00 uM)?
The value was 0.024.

And the “Dose.FC.LYZ.S (log 2 fold change, carbachol-induced lysozyme secretion)” value (ISC-enriched organoids [3]; dose 10.00 uM)?
Its value is −0.097.
